Laboratory results as given in ChEMBL document CHEMBL1158070, “Gymnastatins F-H, cytostatic metabolites from the sponge-derived fungus Gymnascella dankaliensis” (2006).
≈ marks a conversion by molar mass, not a printed value.

What follows are compounds tested on P388 (assay: Cytotoxicity against mouse P388 cells). Details: read-out: ED50 (the source's name).
Assay type: functional
`CCCCCC[C@@H](C)/C=C(C)/C=C/C(=O)N[C@H]1C[C@]2(O)C=C(Cl)C(=O)[C@@](Cl)([C@H]2OC)[C@H]1O` [GYMNASTATIN F] showed an EC50 of 0.13 µg/mL (≈ 0.266 µM). In the case of `CCCCCC[C@@H](C)/C=C(C)/C=C/C(N)=O` [GYMNAMIDE], the EC50 was greater than 10 µg/mL. `CCCCCC[C@@H](C)/C=C(C)/C=C/C(=O)N[C@@H](Cc1ccc(O)cc1)C(=O)OC` [GYMNASTATIN H] showed an EC50 greater than 10 µg/mL. In the case of `O=c1[nH]cc(F)c(=O)[nH]1` [FLUOROURACIL], the EC50 was 0.073 µg/mL (≈ 0.561 µM). Compound `CCCCCC[C@@H](C)/C=C(C)/C=C/C(=O)N[C@H]1C[C@]2(O)[C@H]3O[C@H]3C(=O)[C@](Cl)([C@H]1O)[C@H]2OC` [GYMNASTATIN G] has an EC50 of 0.03 µg/mL (≈ 0.0638 µM).
